From ChEMBL document CHEMBL1201862, “PubChem BioAssay data set” (2004)
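Assay format: 96-well plates, 48-hour exposure. Abbreviation: GI50, concentration required for 50% inhibition of growth.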 The source made the active and inactive calls. Rule as the data show it: active = GI50 up to about 1.1 µM and inactive = higher.

Tests used:
Assay in all cases: NCI tumour cell line growth inhibition, 48 h
EKVX = tested on: EKVX
NCI-H226 = tested on: NCI-H226
KM12 = tested on: KM12
SR = tested on: SR
T47D = tested on: T47D
MDA-MB-435 = tested on: MDA-MB-435
SK-MEL-2 = tested on: SK-MEL-2
NCI/ADR-RES = tested on: NCI/ADR-RES
HOP-62 = tested on: HOP-62
CCRF-CEM = tested on: CCRF-CEM
SF-539 = tested on: SF-539
SNB-19 = tested on: SNB-19
HOP-92 = tested on: HOP-92
CAKI-1 = tested on: CAKI-1
U-251 = tested on: U-251
A549 = tested on: A549
SK-OV-3 = tested on: SK-OV-3
SK-MEL-28 = tested on: SK-MEL-28
M14 = tested on: M14
IGROV-1 = tested on: IGROV-1

| SMILES | GI50 (EKVX) | GI50 (NCI-H226) | GI50 (KM12) | GI50 (SR) | GI50 (T47D) | GI50 (MDA-MB-435) | GI50 (SK-MEL-2) | GI50 (NCI/ADR-RES) | GI50 (HOP-62) | GI50 (CCRF-CEM) | GI50 (SF-539) | GI50 (SNB-19) | GI50 (HOP-92) | GI50 (CAKI-1) | GI50 (U-251) | GI50 (A549) | GI50 (SK-OV-3) | GI50 (SK-MEL-28) | GI50 (M14) | GI50 (IGROV-1) |
| --- | --- | --- | --- | --- | --- | --- | --- | --- | --- | --- | --- | --- | --- | --- | --- | --- | --- | --- | --- | --- |
| CC1=NN(c2nc(N)nc(/C(C#N)=C/c3ccc([N+](=O)[O-])o3)n2)C(C)(C)C1 | 3.37 µM (inactive) | 2.24 µM (inactive) | 13.9 µM (inactive) | 2.58 µM (inactive) | 2.61 µM (inactive) | 2.39 µM (inactive) | 6.34 µM (inactive) | 10.8 µM (inactive) | 17.2 µM (inactive) | 1.3 µM (inactive) | 3.22 µM (inactive) | 15.7 µM (inactive) | 1.95 µM (inactive) | 1.85 µM (inactive) | 5.21 µM (inactive) | 13.1 µM (inactive) | 21.1 µM (inactive) | 5.06 µM (inactive) | 1.57 µM (inactive) | 2.05 µM (inactive) |
| COC12C(COC(=O)NCCO)C3=C(C(=O)C(C)=C(N)C3=O)N1CC1NC12 (centres undefined) | > 264 µM (inactive) | 16.9 µM (inactive) | 69.3 µM (inactive) | 35.2 µM (inactive) | 60.3 µM (inactive) | 140 µM (inactive) | 30.9 µM (inactive) | > 264 µM (inactive) | 6.47 µM (inactive) | 12.1 µM (inactive) | 7.83 µM (inactive) | 16.4 µM (inactive) | 30 µM (inactive) | 2.77 µM (inactive) | 4.05 µM (inactive) | 7.66 µM (inactive) | 24.4 µM (inactive) | > 100 µM (inactive) | 11.5 µM (inactive) | 29.2 µM (inactive) |
| CCn1c2ccc(C(=O)CCCN3CCCCC3)cc2c2cc(C(=O)CCCN3CCCCC3)ccc21 | 4.84 µM (inactive) | 11.9 µM (inactive) | 1.98 µM (inactive) | 2.45 µM (inactive) | 24.2 µM (inactive) | 1.72 µM (inactive) | 1.78 µM (inactive) | 3.78 µM (inactive) | 3.3 µM (inactive) | 2.4 µM (inactive) | 1.77 µM (inactive) | 2.58 µM (inactive) | 10.4 µM (inactive) | 3.48 µM (inactive) | 2.13 µM (inactive) | 1.81 µM (inactive) | 3.43 µM (inactive) | 19.3 µM (inactive) | 2.04 µM (inactive) | 2.08 µM (inactive) |
| COC(=O)[C@@H]1[C@@H]2NC(=S)N[C@@]1(C)Oc1ccccc12 | 52.5 µM (inactive) | 91.4 µM (inactive) | 29.7 µM (inactive) | 95.3 µM (inactive) | > 100 µM (inactive) | 10.1 µM (inactive) | > 100 µM (inactive) | 30.2 µM (inactive) | 89.3 µM (inactive) | 61.9 µM (inactive) | 37.7 µM (inactive) | 49 µM (inactive) | 49.9 µM (inactive) | 76.9 µM (inactive) | 38.3 µM (inactive) | – | 47.8 µM (inactive) | > 100 µM (inactive) | 42.8 µM (inactive) | 49 µM (inactive) |
| CC(=O)Nc1ccc2cc3[nH]c4cc(NC(C)=O)ccc4c3nc2c1 | > 100 µM (inactive) | > 100 µM (inactive) | 21.7 µM (inactive) | 61.1 µM (inactive) | 31.3 µM (inactive) | > 100 µM (inactive) | > 100 µM (inactive) | > 100 µM (inactive) | > 100 µM (inactive) | 38 µM (inactive) | > 100 µM (inactive) | > 100 µM (inactive) | > 100 µM (inactive) | > 100 µM (inactive) | 77.4 µM (inactive) | > 100 µM (inactive) | > 100 µM (inactive) | > 100 µM (inactive) | > 100 µM (inactive) | > 100 µM (inactive) |
| CCCCC1=C(C(=O)N2CCOCC2)C2(OCCO2)C1=O | 26.2 µM (inactive) | 2.86 µM (inactive) | 20.4 µM (inactive) | 83.8 µM (inactive) | 33.9 µM (inactive) | 18.5 µM (inactive) | 25.1 µM (inactive) | 22.2 µM (inactive) | 23.6 µM (inactive) | 32.2 µM (inactive) | 23 µM (inactive) | 14 µM (inactive) | 23.1 µM (inactive) | 21.9 µM (inactive) | 31.3 µM (inactive) | 18 µM (inactive) | 62.4 µM (inactive) | 27.5 µM (inactive) | 17.8 µM (inactive) | 17.9 µM (inactive) |
| C=C1CC(C)(COc2ccc3c(C)cc(=O)oc3c2)OC1=O (centres undefined) | 4.7 µM (inactive) | 8.69 µM (inactive) | 3.66 µM (inactive) | 0.918 µM (active) | 1.74 µM (inactive) | 1.28 µM (inactive) | 1.65 µM (inactive) | 1.95 µM (inactive) | 13.8 µM (inactive) | 0.229 µM (active) | 0.951 µM (active) | 13.7 µM (inactive) | 1.09 µM (active) | 1.3 µM (inactive) | 10.9 µM (inactive) | 8.79 µM (inactive) | 3.73 µM (inactive) | 2.72 µM (inactive) | 1.34 µM (inactive) | 2.47 µM (inactive) |
